Data: PMC10932281, “A Combination of β-Aescin and Newly Synthesized Alkylamidobetaines as Modern Components Eradicating the Biofilms of Multidrug-Resistant Clinical Strains of Candida glabrata” (International Journal of Molecular Sciences, 2024)
In brackets after ≈: the same amount, converted by molar mass. Read-outs that look alike come from different tables or passages of the source. Blank lines part the entries; values can stand above or below the molecule they belong to.

Experiments:
Krafft temperature (TK) = format: physicochemical
Method: CHNS elemental analysis was carried out by a Vario EL cube (Elementar, Germany) calibrated on acetanilide. Electrospray ionization mass spectroscopy (ESI-MS) (micrOTOF-Q instrument; Bruker Daltonics, Germany) allowed for the MS spectra to be obtained. The ESI-MS instrument was operated in the positive ion mode and calibrated with the Tunemix^TM mixture (Bruker Daltonics, Germany). The mass accuracy was better than 5 ppm. The obtained mass spectra were analyzed using DataAnalysis 3.4 software (Bruker Daltonics, Germany). ^1H NMR spectra were recorded on a Bruker AMX-500 spectrometer, using CDCl3 as a solvent. ^1H chemical shifts (in ppm) were calibrated to TMS as an internal reference. Melting points were determined using a Boetius melting point apparatus, while Krafft temperatures were determined according to the directions given in [47]. CMC is the minimum concentration above which micelles are formed in aqueous liquid. To obtain the CMC values, we used McGowan’s model. […] Molecular characteristic volumes (Vx) are found by the addition of the atomic characteristic volumes and the subtraction for the same factory (6.56 × 10^−6 m^3 mol^−1) for every covalent bond.

C. glabrata ATCC 90030 [1] = assay: MIC90/MFC, EUCAST broth microdilution; format: cell-based, Candida glabrata; settings: ATCC 90030
[2] = tested on: C. glabrata 2586 clinical strain; assay: MIC90/MFC, EUCAST broth microdilution; format: cell-based, Candida glabrata
[3] = tested on: C. glabrata strains (ATCC 90030, 2586, 2853); assay: MIC, statements for all tested strains together; format: cell-based, Candida glabrata; settings: all the tested C. glabrata strains, AAB alone
[4] = tested on: C. glabrata 2853 clinical strain; assay: MIC90/MFC, EUCAST broth microdilution; format: cell-based, Candida glabrata
C. glabrata 2586 biofilm = assay: Biofilm eradication on polystyrene, fluorescence microscopy (Syto9/PI); format: cell-based, Candida glabrata; settings: Nakaseomyces glabratus, 2586BIOFILM, 72 h, read-out: Biofilm Viability [%] 2586 Live; for viability at 1 µM: AAB alone 1 μM; for viability at 2 µM: AAB alone 2 μM; for viability at 3 µM: AAB alone 3 μM
Method: (§1) C. glabrata biofilm eradication on polystyrene surfaces was assessed according to the following procedure: 1 mL of C. glabrata culture, 10^6 CFU/mL in RMPI 1640 MOPS-buffered medium, was pipetted into the wells of a 48-well adherent plate. Cultures were incubated at 37 °C for 72 h with shaking (400 RPM). […] Non-treated cells were used as the control. This experiment was carried out in triplicate. The analysis of the biofilm eradication of C. glabrata strains on polystyrene surfaces was performed using fluorescence microscopy (FM). For further information, see Section 4.12. below.
(§2) The 72 h biofilm of C. glabrata strains on polystyrene surfaces was stained on 48-well adherent plates with 1 µL of propidium iodide (Ex λ = 543 nm/Em λ = 617 nm) and 1 µL of SYTO9 (Ex λ = 488 nm/Em λ = 503 nm) for 30 min using a LIVE/DEAD BacLight Bacterial Viability Kit (Thermo Fisher Scientific, Waltham, MA USA). Imaging was performed using a fluorescence microscope (FM) BX51 (Olympus, Tokyo, Japan) equipped with an Orca Flash 40 camera (Hamamatsu, Hamamatsu City, Japan) and 10× objective Plan APO. Scale bar = 100 µm. Detailed computer qualitative and quantitative analyses of the obtained pictures were performed by estimating the coverage area on the polystyrene plate (the percentage of the area occupied by the fungal biofilm). The cell viability analysis was performed by calculating the fluorescence intensity of the dyes (Syto9/PI) used. The acquired images were processed and analyzed using Fiji/ImageJ software ver. 1.53c (NIH, Bethesda, MD, USA). First, maximum intensity projections (MIPs) were obtained from stacks of images. The areas of the binary images were transferred into the original live and dead channel MIP images. The mean fluorescence intensities of all detected objects per field of view were calculated using ImageJ’s Analyze Threshold function (Software: ImageJ version 1.53 from Softonic).

[5] = tested on: C. glabrata ATCC 90030 biofilm; assay: as above; format: cell-based, Candida glabrata; settings: Nakaseomyces glabratus, ATCC90030, 72 h, read-out: Biofilm Viability [%] 90030 Live; for viability at 1 µM: AAB alone 1 μM; for viability at 2 µM: AAB alone 2 μM; for viability at 3 µM: AAB alone 3 μM
Method: as §1, §2

C. glabrata 2853 biofilm = assay: as above; format: cell-based, Candida glabrata; settings: Nakaseomyces glabratus, 2853BIOFILM, 72 h, read-out: Biofilm Viability [%] 2853 Live; for viability at 1 µM: AAB alone 1 μM; for viability at 2 µM: AAB alone 2 μM; for viability at 3 µM: AAB alone 3 μM
Method: as §1, §2

[6] = tested on: Balb/3T3 mouse embryonic fibroblasts; assay: Cell proliferation assay (MTT test); format: cell-based; settings: 24 h
Method: Balb/3T3 (ATCC CCL-163) mouse embryonic fibroblasts were cultured in DMEM medium supplemented with 10% fetal bovine serum, 1 mM L-glutamine, and a 1% penicillin/streptomycin solution and were used for our cytotoxicity studies. The cells were cultured at 37 °C and 5% CO2 until the cell density of 10^6 mL^−1 was obtained. Such cells were then seeded in 24-well tissue microplates (2 × 10^4 cells per well) and allowed to adhere overnight under the abovementioned conditions. Cytotoxicity tests were carried out on the cells prepared in this way.
The newly synthesized AABs (C9, C11, C13, and C15) were selected based on previous studies. They were analyzed at the concentrations of 0.25, 0.5, 1, 2, and 3 µM. […] The BALB-3T3 cells were treated with the prepared mixtures, dissolved in a complete cell culture medium, and then incubated for 24 h under the abovementioned conditions. Three independent replicates were performed for each combination of compounds.
The cytotoxic effect of the tested compounds in combination with β-AE was evaluated by measuring mitochondrial dehydrogenase activity using the MTT assay. After a 24 h incubation period, the medium supplemented with the 1mM MTT solution was added to each well. The cultures were continued for another 4 h under the conditions enriched with 5% CO2. After this time, the supernatant was collected, and MTT formazan was extracted from the cells using DMSO. The reaction was then stopped with Sörensen buffer (0.1 mol/L glycine; 0.1 mol/L NaCl; and pH 10.5). The percentage of cytotoxicity was calculated by comparing the absorbance values (λ = 560 nm) of the test sample to the control sample, which was untreated fibroblast cells. In the test performed, the negative control (C−) (sample not treated; PBS added) and positive control (C+) were fibroblast cells treated with 1% SDS [60].

C. glabrata 2586 [7] = assay: Interaction of AABs (3 µM) with antifungal agents, modified checkerboard; format: cell-based, Candida glabrata
[8] = tested on: biofilms of C. glabrata DSM 1226 and two clinical isolates; set-up: method as in PMID 37508306; settings: combination with β-AE; biofilms of three strains; ref [12]; cited from earlier work
C. glabrata ATCC 90030 [9] = assay: Interaction of AABs (3 µM) with antifungal agents, modified checkerboard; format: cell-based, Candida glabrata
C. glabrata 2853 [10] = assay: as above; format: cell-based, Candida glabrata; settings: for Multiplicity factor (MF) with C9: C9 3 µM
C. glabrata ATCC 90030 [11] = assay: FICI checkerboard, β-aescin with antifungal drugs; format: cell-based, Candida glabrata
C. glabrata 2586 [12] = assay: FICI checkerboard, β-aescin with antifungal drugs; format: cell-based, Candida glabrata; settings: combination with β-aescin
C. glabrata 2853 [13] = assay: FICI checkerboard, β-aescin with antifungal drugs; format: cell-based, Candida glabrata
[14] = Nakaseomyces glabratus, ATCC90030, read-out: MIC converted to
[15] = Nakaseomyces glabratus, read-out: MFC
[16] = Nakaseomyces glabratus, read-out: MIC90
[17] = C11 at constant 3 µM, dilutions in µg/mL
[18] = C13 at constant 3 µM, dilutions in µg/mL
[19] = C15 at constant 3 µM, dilutions in µg/mL
[20] = C9 at constant 3 µM, dilutions in µg/mL

- TK (Krafft temperature) (Krafft temperature (TK)): ~5 °C
- MIC90 (C. glabrata ATCC 90030 [1]; AAB alone): >3 µM/mL
- MIC90 ([2]; AAB alone): >3 µM/mL
- MIC [3, 14]: 1070 µg/mL (≈ 3 mM)
- MIC [3]: 3 µM/mL
- MIC90 ([4]; AAB alone): >3 µM/mL
Compound: CCCCCCCCCCCC(=O)N(C)CCC[N+](C)(C)CC(=O)[O-] [C11]
- viability at 1 µM (C. glabrata 2586 biofilm): 4.54%
- viability at 2 µM (C. glabrata 2586 biofilm): 4.45%
- viability at 3 µM (C. glabrata 2586 biofilm): 3.49%
- viability at 1 µM [5]: 32.6%
- viability at 2 µM [5]: 3.96%
- viability at 3 µM [5]: 2.14%
- viability at 1 µM (C. glabrata 2853 biofilm): 37.2%
- viability at 2 µM (C. glabrata 2853 biofilm): 3.06%
- viability at 3 µM (C. glabrata 2853 biofilm): 7.34%
- Cytotoxicity level ([6]; 1 µm/mL): 85%

- TK (Krafft temperature) (Krafft temperature (TK)): 20.5 °C
- MIC90 (C. glabrata ATCC 90030 [1]; AAB alone): >3 µM/mL
- MIC90 ([2]; AAB alone): >3 µM/mL
- MIC [3, 14]: 1150 µg/mL (≈ 3 mM)
- MIC [3]: 3 µM/mL
- MIC90 ([4]; AAB alone): >3 µM/mL
Compound: CCCCCCCCCCCCCC(=O)N(C)CCC[N+](C)(C)CC(=O)[O-] [C13]
- viability at 1 µM (C. glabrata 2586 biofilm): 4.56%
- viability at 2 µM (C. glabrata 2586 biofilm): 4.57%
- viability at 3 µM (C. glabrata 2586 biofilm): 12.9%
- viability at 1 µM [5]: 1.96%
- viability at 2 µM [5]: 6.55%
- viability at 3 µM [5]: 2.26%
- viability at 1 µM (C. glabrata 2853 biofilm): 11.6%
- viability at 2 µM (C. glabrata 2853 biofilm): 4.98%
- viability at 3 µM (C. glabrata 2853 biofilm): 14.2%
- Cytotoxicity level ([6]; 2 µM/mL): 85%

- TK (Krafft temperature) (Krafft temperature (TK)): 36.4 °C
- MIC90 (C. glabrata ATCC 90030 [1]; AAB alone): >3 µM/mL
- MIC90 ([2]; AAB alone): >3 µM/mL
- MIC [3, 14]: 1240 µg/mL (≈ 3 mM)
- MIC [3]: 3 µM/mL
- MIC90 ([4]; AAB alone): >3 µM/mL
Compound: CCCCCCCCCCCCCCCC(=O)N(C)CCC[N+](C)(C)CC(=O)[O-] [C15]
- viability at 1 µM (C. glabrata 2586 biofilm): 6.07%
- viability at 2 µM (C. glabrata 2586 biofilm): 2.33%
- viability at 3 µM (C. glabrata 2586 biofilm): 6.23%
- viability at 1 µM [5]: 41.9%
- viability at 2 µM [5]: 28.8%
- viability at 3 µM [5]: 41.4%
- viability at 1 µM (C. glabrata 2853 biofilm): 63%
- viability at 2 µM (C. glabrata 2853 biofilm): 17%
- viability at 3 µM (C. glabrata 2853 biofilm): 6.64%
- Decrease of viability ([6]; 0.25 µm/mL): 15%
- Decrease of viability ([6]; 0.5 µm/mL): 28%

Compound: OC(Cn1cncn1)(Cn1cncn1)c1ccc(F)cc1F [Fluconazole]
- MFC (C. glabrata ATCC 90030 [1]; Nakaseomyces glabratus, ATCC90030, read-out: MFC): 2050 µg/mL (≈ 6.69 mM)
- MIC90 (C. glabrata ATCC 90030 [1]; Nakaseomyces glabratus, ATCC90030, read-out: MIC90): 2050 µg/mL (≈ 6.69 mM)
- MFC [2, 15]: 2050 µg/mL (≈ 6.69 mM)
- MIC90 [2, 16]: 2050 µg/mL (≈ 6.69 mM)
- Multiplicity factor (MF) with C9 (C. glabrata 2586 [7]; C9 3 µM): 8
- Multiplicity factor (MF) with C11 (C. glabrata 2586 [7]; C11 3 µM): 64
- MIC90 of antimycotic combined with C11 (C. glabrata 2586 [7]; [17]): 32
- Multiplicity factor (MF) with C13 (C. glabrata 2586 [7]; C13 3 µM): 64
- MIC90 of antimycotic combined with C13 (C. glabrata 2586 [7]; [18]): 32
- Multiplicity factor (MF) with C15 (C. glabrata 2586 [7]; C15 3 µM): 64
- MIC90 of antimycotic combined with C15 (C. glabrata 2586 [7]; [19]): 32
- FICI [8]: ≤ 0.5
- MFC [4, 15]: 2050 µg/mL (≈ 6.69 mM)
- MIC90 [4, 16]: 32 µg/mL (≈ 0.104 mM)
- Multiplicity factor (MF) with C9 (C. glabrata ATCC 90030 [9]; C9 3 µM, |MF| = MIC90 alone/MIC90 with AAB): 16
- MIC90 of antimycotic combined with C9 (C. glabrata ATCC 90030 [9]; [20]): 128
- Multiplicity factor (MF) with C11 (C. glabrata ATCC 90030 [9]; C11 3 µM): 64
- MIC90 of antimycotic combined with C11 (C. glabrata ATCC 90030 [9]; [17]): 32
- Multiplicity factor (MF) with C13 (C. glabrata ATCC 90030 [9]; C13 3 µM): 64
- MIC90 of antimycotic combined with C13 (C. glabrata ATCC 90030 [9]; [18]): 32
- Multiplicity factor (MF) with C15 (C. glabrata ATCC 90030 [9]; C15 3 µM): 64
- MIC90 of antimycotic combined with C15 (C. glabrata ATCC 90030 [9]; [19]): 32
- Multiplicity factor (MF) with C9 (C. glabrata 2853 [10]): 1
- Multiplicity factor (MF) with C9 (C. glabrata 2853 [10]; listed as fluconazole): did not interact
- MIC90 of antimycotic combined with C9 (C. glabrata 2853 [10]; [20]): 32
- Multiplicity factor (MF) with C11 (C. glabrata 2853 [10]; C11 3 µM): 2
- MIC90 of antimycotic combined with C11 (C. glabrata 2853 [10]; [17]): 16
- Multiplicity factor (MF) with C13 (C. glabrata 2853 [10]; C13 3 µM): 2
- MIC90 of antimycotic combined with C13 (C. glabrata 2853 [10]; [18]): 16
- Multiplicity factor (MF) with C15 (C. glabrata 2853 [10]; C15 3 µM): 16
- MIC90 of antimycotic combined with C15 (C. glabrata 2853 [10]; [19]): 2
- Type of interaction with β-AE (by FICI) (C. glabrata ATCC 90030 [11]): synergistic
- FICI (C. glabrata ATCC 90030 [11]; combination with β-aescin): 0.25
- FICI (C. glabrata 2586 [12]): 1.25
- Type of interaction with β-AE (by FICI) (C. glabrata 2853 [13]): additive
- FICI (C. glabrata 2853 [13]; combination with β-aescin): 0.75
